Reference: patent US20240101521A1, “DIAMINOTRIAZINE COMPOUNDS” (BASF SE, priority 2021, published 2024)

Assays:
Assay in all cases: greenhouse pre-emergence herbicidal test
Format in all cases: in vivo
Settings in all cases: scale 0 to 100
Setaria faberi = system: Setaria faberi
Text: (§1) The culture containers used were plastic flowerpots containing loamy sand with approximately 3.0% of humus as the substrate. The seeds of the test plants were sown separately for each species.
(§2) For the pre-emergence treatment, the active ingredients, which had been suspended or emulsified in water, were applied directly after sowing by means of finely distributing nozzles. The containers were irrigated gently to promote germination and growth and subsequently covered with transparent plastic hoods until the plants had rooted. This cover caused uniform germination of the test plants, unless this had been impaired by the active ingredients. For the post-emergence treatment, the test plants were first grown to a height of 3 to 15 cm, depending on the plant habit, and only then treated with the active ingredients which had been suspended or emulsified in water. For this purpose, the test plants were either sown directly and grown in the same containers, or they were first grown separately as seedlings and transplanted into the test containers a few days prior to treatment.
(§3) Depending on the species, the plants were kept at 10-25° C. or 20-35° C., respectively.
(§4) The test period extended over 2 to 4 weeks. During this time, the plants were tended, and their response to the individual treatments was evaluated.
(§5) Evaluation was carried out using a scale from 0 to 100. 100 means no emergence of the plants, or complete destruction of at least the aerial moieties, and 0 means no damage, or normal course of growth. A moderate herbicidal activity is given at values of at least 60, a good herbicidal activity is given at values of at least 70, and a very good herbicidal activity is given at values of at least 85.
(§6) The plants used in the greenhouse experiments were of the following species: […]

Amaranthus retroflexus = system: Amaranthus retroflexus
Text: as §1, §2, §3, §4, §5, §6

Echinochloa crus-galli = system: Echinochloa crus-galli
Text: as §1, §2, §3, §4, §5, §6

Question: Which herbicidal activity (Setaria faberi; pre-emergence, 62,5 g/ha) does the source give for `CCOc1c(Br)cc(F)c(F)c1Nc1nc(N)nc(C2(F)CCCC2)n1` [Example 21] here?
Answer: Its herbicidal activity is 100%.

Question: What about the herbicidal activity (Amaranthus retroflexus; pre-emergence, 62,5 g/ha) of the same compound?
Answer: The herbicidal activity was 95%.

Question: And the herbicidal activity (Echinochloa crus-galli; pre-emergence, 62,5 g/ha)?
Answer: The herbicidal activity was 100%.

Question: `CCC#CCOc1c(Br)cc(F)c(F)c1Nc1nc(N)nc(C2(F)CCCC2)n1` [Example 22] was tested. Which herbicidal activity (Setaria faberi; pre-emergence, 62,5 g/ha) did it give?
Answer: Its herbicidal activity is 100%.

Question: And the herbicidal activity (Amaranthus retroflexus; pre-emergence, 62,5 g/ha)?
Answer: The herbicidal activity was 85%.

Question: What about the herbicidal activity (Echinochloa crus-galli; pre-emergence, 62,5 g/ha) of the same compound?
Answer: The herbicidal activity was 85%.

Question: What does the source list for `CCOc1c(Cl)cc(F)c(F)c1Nc1nc(N)nc(C(C)(C)F)n1` [Example 23]?
Answer: herbicidal activity (Setaria faberi; pre-emergence, 62,5 g/ha): 100%; herbicidal activity (Amaranthus retroflexus; pre-emergence, 62,5 g/ha): 100%; herbicidal activity (Echinochloa crus-galli; pre-emergence, 62,5 g/ha): 100%

Question: Which herbicidal activity (Setaria faberi; pre-emergence, 62,5 g/ha) does the source give for `CCC#CCOc1c(Cl)cc(F)c(F)c1Nc1nc(N)nc(C(C)(C)F)n1` [Example 24] here?
Answer: The herbicidal activity was 100%.

Question: And the herbicidal activity (Amaranthus retroflexus; pre-emergence, 62,5 g/ha)?
Answer: The herbicidal activity was 100%.

Question: And the herbicidal activity (Echinochloa crus-galli; pre-emergence, 62,5 g/ha)?
Answer: Its herbicidal activity is 100%.

Question: What does the source list for `COc1c(Br)ccc(F)c1Nc1nc(N)nc(C2(F)CCCC2)n1` [Example 25]?
Answer: herbicidal activity (Setaria faberi; pre-emergence, 250 g/ha): 100%; herbicidal activity (Amaranthus retroflexus; pre-emergence, 250 g/ha): 100%; herbicidal activity (Echinochloa crus-galli; pre-emergence, 250 g/ha): 100%

Question: For `COCOc1c(Br)ccc(F)c1Nc1nc(N)nc(C(C)(C)F)n1` [Example 26], which herbicidal activity (Setaria faberi; pre-emergence, 250 g/ha) is on record?
Answer: The herbicidal activity was 100%.

Question: What about the herbicidal activity (Amaranthus retroflexus; pre-emergence, 250 g/ha) of the same compound?
Answer: Its herbicidal activity is 100%.

Question: What about the herbicidal activity (Echinochloa crus-galli; pre-emergence, 250 g/ha) of the same compound?
Answer: The herbicidal activity was 100%.

Question: For `C#CCOc1c(Br)cc(F)c(F)c1Nc1nc(N)nc(C2(F)CCCC2)n1` [Example 27], which herbicidal activity (Setaria faberi; pre-emergence, 31 g/ha) is on record?
Answer: Its herbicidal activity is 100%.

Question: And the herbicidal activity (Amaranthus retroflexus; pre-emergence, 31 g/ha)?
Answer: The herbicidal activity was 100%.

Question: Which herbicidal activity (Setaria faberi; pre-emergence, 62,5 g/ha) does the source give for `C#CCOc1c(Cl)cc(F)c(F)c1Nc1nc(N)nc(C(C)(C)F)n1` [Example 28] here?
Answer: The herbicidal activity was 100%.

Question: And the herbicidal activity (Amaranthus retroflexus; pre-emergence, 62,5 g/ha)?
Answer: Its herbicidal activity is 100%.

Question: What about the herbicidal activity (Echinochloa crus-galli; pre-emergence, 62,5 g/ha) of the same compound?
Answer: The herbicidal activity was 100%.

Question: Which herbicidal activity (Setaria faberi; pre-emergence, 62,5 g/ha) does the source give for `COc1c(Cl)cc(F)c(F)c1Nc1nc(N)nc(C(C)Cl)n1` (centres unmarked) [Example 38] here?
Answer: Its herbicidal activity is 100%.

Question: And the herbicidal activity (Amaranthus retroflexus; pre-emergence, 62,5 g/ha)?
Answer: Its herbicidal activity is 100%.

Question: What about the herbicidal activity (Echinochloa crus-galli; pre-emergence, 62,5 g/ha) of the same compound?
Answer: Its herbicidal activity is 100%.

Question: How did the herbicidal activity (Setaria faberi; pre-emergence, 62,5 g/ha) turn out when `COc1c(Cl)cc(F)c(F)c1Nc1nc(N)nc(C(C)F)n1` (centres unmarked) [Example 39] was run?
Answer: Its herbicidal activity is 100%.

Question: And the herbicidal activity (Amaranthus retroflexus; pre-emergence, 62,5 g/ha)?
Answer: The herbicidal activity was 100%.

Question: What about the herbicidal activity (Echinochloa crus-galli; pre-emergence, 62,5 g/ha) of the same compound?
Answer: Its herbicidal activity is 100%.

Question: With `COc1c(Cl)cc(F)c(F)c1Nc1nc(N)nc(C(F)C2CC2)n1` (centres unmarked) [Example 40] as the compound, how does the herbicidal activity (Setaria faberi; pre-emergence, 62,5 g/ha) read?
Answer: The herbicidal activity was 100%.

Question: And the herbicidal activity (Amaranthus retroflexus; pre-emergence, 62,5 g/ha)?
Answer: Its herbicidal activity is 100%.

Question: And the herbicidal activity (Echinochloa crus-galli; pre-emergence, 62,5 g/ha)?
Answer: The herbicidal activity was 100%.

Question: `CCOc1c(Cl)ccc(F)c1Nc1nc(N)nc(C(C)(C)F)n1` [Example 41] was tested. Which herbicidal activity (Setaria faberi; pre-emergence, 62,5 g/ha) did it give?
Answer: The herbicidal activity was 100%.

Question: And the herbicidal activity (Amaranthus retroflexus; pre-emergence, 62,5 g/ha)?
Answer: Its herbicidal activity is 100%.

Question: And the herbicidal activity (Echinochloa crus-galli; pre-emergence, 62,5 g/ha)?
Answer: The herbicidal activity was 100%.

Question: For `CC#CCOc1c(Cl)ccc(F)c1Nc1nc(N)nc(C(C)(C)F)n1` [Example 42], which herbicidal activity (Setaria faberi; pre-emergence, 31 g/ha) is on record?
Answer: Its herbicidal activity is 100%.

Question: And the herbicidal activity (Amaranthus retroflexus; pre-emergence, 31 g/ha)?
Answer: Its herbicidal activity is 100%.

Question: What about the herbicidal activity (Echinochloa crus-galli; pre-emergence, 31 g/ha) of the same compound?
Answer: The herbicidal activity was 100%.

Question: With `COc1c(Cl)ccc(F)c1Nc1nc(N)nc(C(C)F)n1` (centres unmarked) [Example 43] as the compound, how does the herbicidal activity (Setaria faberi; pre-emergence, 62,5 g/ha) read?
Answer: Its herbicidal activity is 100%.

Question: What about the herbicidal activity (Amaranthus retroflexus; pre-emergence, 62,5 g/ha) of the same compound?
Answer: Its herbicidal activity is 100%.

Question: What about the herbicidal activity (Echinochloa crus-galli; pre-emergence, 62,5 g/ha) of the same compound?
Answer: Its herbicidal activity is 100%.

Question: Which herbicidal activity (Setaria faberi; pre-emergence, 62,5 g/ha) does the source give for `COc1c(Br)ccc(F)c1Nc1nc(N)nc(C(C)F)n1` (centres unmarked) [Example 44] here?
Answer: Its herbicidal activity is 100%.

Question: What about the herbicidal activity (Amaranthus retroflexus; pre-emergence, 62,5 g/ha) of the same compound?
Answer: Its herbicidal activity is 100%.

Question: What about the herbicidal activity (Echinochloa crus-galli; pre-emergence, 62,5 g/ha) of the same compound?
Answer: Its herbicidal activity is 100%.

Question: What does the source list for `CCOc1c(Br)ccc(F)c1Nc1nc(N)nc(C(C)(C)F)n1` [Example 45]?
Answer: herbicidal activity (Setaria faberi; pre-emergence, 62,5 g/ha): 100%; herbicidal activity (Amaranthus retroflexus; pre-emergence, 62,5 g/ha): 100%; herbicidal activity (Echinochloa crus-galli; pre-emergence, 62,5 g/ha): 100%

Question: What does the source list for `CC#CCOc1c(Br)ccc(F)c1Nc1nc(N)nc(C(C)(C)F)n1` [Example 46]?
Answer: herbicidal activity (Setaria faberi; pre-emergence, 62,5 g/ha): 100%; herbicidal activity (Amaranthus retroflexus; pre-emergence, 62,5 g/ha): 100%; herbicidal activity (Echinochloa crus-galli; pre-emergence, 62,5 g/ha): 100%

Question: Which herbicidal activity (Setaria faberi; pre-emergence, 62,5 g/ha) does the source give for `CC#CCOc1c(Br)cc(F)c(F)c1Nc1nc(N)nc(C(C)(F)F)n1` [Example 47] here?
Answer: Its herbicidal activity is 100%.

Question: What about the herbicidal activity (Amaranthus retroflexus; pre-emergence, 62,5 g/ha) of the same compound?
Answer: Its herbicidal activity is 100%.

Question: And the herbicidal activity (Echinochloa crus-galli; pre-emergence, 62,5 g/ha)?
Answer: Its herbicidal activity is 100%.

Question: How did the herbicidal activity (Setaria faberi; pre-emergence, 31 g/ha) turn out when `COc1c(Cl)ccc(F)c1Nc1nc(N)nc(C(C)(F)F)n1` [Example 48] was run?
Answer: The herbicidal activity was 100%.

Question: And the herbicidal activity (Amaranthus retroflexus; pre-emergence, 31 g/ha)?
Answer: Its herbicidal activity is 100%.

Question: And the herbicidal activity (Echinochloa crus-galli; pre-emergence, 31 g/ha)?
Answer: The herbicidal activity was 70%.

Question: For `CCC(C)(F)c1nc(N)nc(Nc2c(F)c(Cl)cc(Cl)c2OC)n1` (centres unmarked) [Example 62], which herbicidal activity (Setaria faberi; pre-emergence, 31 g/ha) is on record?
Answer: Its herbicidal activity is 100%.

Question: And the herbicidal activity (Amaranthus retroflexus; pre-emergence, 31 g/ha)?
Answer: The herbicidal activity was 100%.

Question: And the herbicidal activity (Echinochloa crus-galli; pre-emergence, 31 g/ha)?
Answer: The herbicidal activity was 100%.

Question: How did the herbicidal activity (Setaria faberi; pre-emergence, 62 g/ha) turn out when `CCOc1c(Br)cc(Br)c(F)c1Nc1nc(N)nc(C(C)(C)F)n1` [Example 66] was run?
Answer: Its herbicidal activity is 100%.

Question: What about the herbicidal activity (Amaranthus retroflexus; pre-emergence, 62 g/ha) of the same compound?
Answer: Its herbicidal activity is 100%.

Question: And the herbicidal activity (Echinochloa crus-galli; pre-emergence, 62 g/ha)?
Answer: Its herbicidal activity is 100%.

Question: For `C#CCOc1c(C)cc(Br)c(F)c1Nc1nc(N)nc(C(C)(C)F)n1` [Example 67], which herbicidal activity (Setaria faberi; pre-emergence, 62 g/ha) is on record?
Answer: The herbicidal activity was 100%.

Question: What about the herbicidal activity (Amaranthus retroflexus; pre-emergence, 62 g/ha) of the same compound?
Answer: Its herbicidal activity is 100%.

Question: And the herbicidal activity (Echinochloa crus-galli; pre-emergence, 62 g/ha)?
Answer: The herbicidal activity was 100%.

Question: `CC#CCOc1c(C)cc(Br)c(F)c1Nc1nc(N)nc(C(C)(C)F)n1` [Example 68] was tested. Which herbicidal activity (Setaria faberi; pre-emergence, 62 g/ha) did it give?
Answer: The herbicidal activity was 100%.

Question: What about the herbicidal activity (Amaranthus retroflexus; pre-emergence, 62 g/ha) of the same compound?
Answer: The herbicidal activity was 100%.

Question: What about the herbicidal activity (Echinochloa crus-galli; pre-emergence, 62 g/ha) of the same compound?
Answer: The herbicidal activity was 100%.

Question: Which results are given for `COc1c(C)ccc(F)c1Nc1nc(N)nc(C(C)(C)F)n1` [Example 69]?
Answer: herbicidal activity (Setaria faberi; pre-emergence, 62 g/ha): 100%; herbicidal activity (Amaranthus retroflexus; pre-emergence, 62 g/ha): 100%; herbicidal activity (Echinochloa crus-galli; pre-emergence, 62 g/ha): 100%
